Data reported in US20200172489A1, “FLUORESCENT COMPOUND AND AUTOPHAGY DETECTION REAGENT USING SAME” (DOJINDO LABORATORIES, priority 2017, published 2020).
Structures can show the parent of a compound that is named as a salt.

Key:
HeLa cells [1] = assay: Autophagy detection test (3): co-staining of HeLa cells with Compound 6h and Compound 11, fluorescent microscopy; format: cell-based; conditions: Compound 6h 1 μM and Compound 11 0.1 μM; 3 hours or 6 hours; FIG. 11
Description: (§1) HeLa cells were seeded on a μ-slide 8 well (Ibidi) and incubated in a CO2 incubator at 37° C. overnight. Compound 6h (1 μM) and Compound 11 (0.1 μM) diluted with serum medium was added and incubated for 30 minutes. After washing twice with serum medium, the cells were incubated at 37° C. for 3 hours or 6 hours in an amino acid-free medium of serum containing-medium and observed with a fluorescent microscope.

[2] = pH dependence of fluorescent intensity of the fluorescent compounds; format: physicochemical; conditions: for pH dependence of fluorescent intensity: FIG. 6
HeLa cells [3] = assay: Autophagy detection test (4): staining of HeLa cells with Compound 4b and Compound 13, fluorescent microscopy; format: cell-based; conditions: Compound 4b 1 μM and Compound 13 0.1 μM; 3 hours or 6 hours; FIG. 12
Description: as §1, with “Compound 4b” for “Compound 6h”, “μM) or” for “μM) and”, “Compound 13” for “Compound 11”

HeLa cells [4] = assay: Autophagy detection test (1): evaluation using flow cytometry; format: cell-based; conditions: 1 μM; starvation condition, 6 hours and 20 hours; FIG. 3
Description: HeLa cells were seeded on a 24 well plate and incubated in a CO2 incubator at 37° C. overnight, 1 μM of Compound 4b diluted with serum medium was added and incubated for 30 minutes. After washing twice with the serum-free medium, a medium free from amino acid and serum was added and the cells were incubated at 37° C. for 6 hours or 20 hours. Cell were washed with PBS once, peeled with 0.25% trypsin-EDTA and used for flow cytometric analysis.

HeLa cells [5] = assay: Autophagy detection test (1): fluorescent microscopy of HeLa cells after introducing the compound, with autophagy induced or inhibited; format: cell-based; conditions: for fluorescent intensity in HeLa cells in the presence of Bafilomycin: Bafilomycin (0.1 μM bafilomycin A1), autophagy hardly occurs; for fluorescent intensity in HeLa cells in the presence of Bafilomycin / fluorescent intensity in HeLa cells, control group / fluorescent intensity in HeLa cells under starvation condition / change of fluorescent intensity in HeLa cells when bafilomycin was added under starvation condition: FIG. 7; for fluorescent intensity in HeLa cells, control group: Control (autophagy hardly occurs); for fluorescent intensity in HeLa cells under starvation condition: Starved; for change of fluorescent intensity in HeLa cells when bafilomycin was added under starvation condition: starvation plus bafilomycin
Description: HeLa cells were seeded on a μ-slide 8 well (Ibidi) and incubated in a CO2 incubator at 37° C. overnight. Compound 4b (1 μM) or Compound 6h (0.1 μM) diluted with serum medium was added and incubated for 30 minutes. After washing twice with serum medium, the cells were incubated at 37° C. for 6 hours or 20 hours in an amino acid-free medium of serum containing-medium and observed with a fluorescent microscope. As an autophagy inducing agent, 0.5 μM Rapamycin was used and as an autophagy inhibiting agent, 10 μM chloroquine and 0.1 μM bafilomycin A1 were used.

HeLa cells [6] = assay: Autophagy detection test (2): fluorescent microscopy of HeLa cells under starvation condition; format: cell-based; conditions: 0.1 μM; Starve vs Control; incubated 5 hours; FIG. 10
Description: as §1, with “diluted with a serum medium” for “(1 μM) and Compound 11”, “μM)” for “μM) diluted with serum medium”, “5” for “3 hours or 6”

SMILES | staining pattern in HeLa cells under starvation condition, two compounds introduced together (HeLa cells [1]) | pH (acidic condition) under which the fluorescent intensity increases ([2]; FIG. 1 / FIG. 9) | staining pattern in HeLa cells under starvation condition, two compounds introduced together (HeLa cells [3]) | usefulness for detecting autophagy by flow cytometry (HeLa cells [4]) | fluorescent intensity in HeLa cells in the presence of Bafilomycin (HeLa cells [5]) | fluorescent intensity in HeLa cells, control group (HeLa cells [5]) | fluorescent intensity in HeLa cells, autophagy induced by adding Rapamycin (HeLa cells [5]; Rapamycin & Chloroquine group vs Control, 0.5 μM Rapamycin, 10 μM chloroquine, incubated 6 hours and 20 hours, FIG. 2) | fluorescent intensity in HeLa cells, autophagy induced by starvation culture (HeLa cells [5]; Starved group vs Control, incubated 6 hours and 20 hours, FIG. 2) | fluorescent intensity in HeLa cells under starvation condition (HeLa cells [5]; autophagy induced) | change of fluorescent intensity in HeLa cells when bafilomycin was added under starvation condition (HeLa cells [5]) | pH dependence of fluorescent intensity [2] | shape of fluorescent emission in high-magnification fluorescent microscopic images (HeLa cells [5]; HeLa cells, autophagy induced, FIG. 8, A-1 and A-2) | fluorescent intensity in HeLa cells under starvation condition (HeLa cells [6])
CCCCCN1C(=O)c2ccc3c4cccc5c(N6CCN(CCN)CC6)ccc(c6ccc(c2c36)C1=O)c54 [Compound 11, 8-(4-(2-aminoethyl)piperazin-1-yl)-2-pentyl-1H-benzo[10,5]anthra[2,1,9-def]isoquinolin-1,3(2H)-dione] | granular points co-stained by Compound 6h and Compound 11 | ≤ 6 | – | – | – | – | – | – | – | – | – | – | –
CCCCCN1C(=O)c2cccc3c(N4CCN(CCN)CC4)ccc(c23)C1=O [Compound 4b, 2-(4-(1,3-dioxo-2-pentyl-2,3-dihydro-1H-benzo[de]isoquinolin-6-yl)piperazin-1-yl)ethane-1-amine hydrochloride salt] | – | – | granular points stained only by Compound 4b and granular points co-stained by Compound 4b and Compound 13 | useful for detecting autophagy using not only fluorescent microscopy but also flow cytometry | low | low | enhancement of the fluorescent intensities was observed | enhancement of the fluorescent intensities was observed | high | decreased | – | – | –
CCCCCN1C(=O)c2ccc3c4cccc5c(NCCCCCN)ccc(c6ccc(c2c36)C1=O)c54 [Compound 13, 5-((1,3-dioxo-2-pentyl-2,3-dihydro-1H-benzo[10,5]anthra[2,1,9-def]isoquinolin-8-yl)amino)pentane-1-amine hydrochloric salt] | – | – | granular points co-stained by Compound 4b and Compound 13 | – | – | – | – | – | – | – | no pH dependence | – | –
CCCCCN1C(=O)c2cccc3c(NCCCCCN)ccc(c23)C1=O [Compound 6h, hydrochloride salt] | granular points stained only by Compound 6h and granular points co-stained by Compound 6h and Compound 11 | – | – | – | low | low | – | – | high | did not decrease | no pH dependence | ring-shaped fluorescent emission | enhancement of the fluorescent intensity was observed
